Converted amounts (≈) assume the structure as drawn.
Columns and labels:
[1] = physchem; conditions: 25 °C, thermodynamic from solid
[2] = Water uptake on storage; format: physicochemical
[3] = Moisture sorption/desorption (hygroscopicity) by DVS; format: physicochemical
Protocol: Hygroscopicity was determined on a Surface Measurement Systems DVS. Typically a sample size of 5-20 mg was loaded into the DVS instrument sample pan and the sample was analyzed on a DVS automated sorption analyzer at room temperature. The relative humidity was increased from 0% to 90% RH at 10% RH step, then at 95% RH. The relative humidity was then decreased in a similar manner to accomplish a full adsorption/desorption cycle.
The moisture sorption/desorption behavior of Form A was determined by DVS.

[4] = Compression test of Form A; format: physicochemical; conditions: 2000-psi pressure for about 1 minute
Excerpt: The stability of Form A was further characterized by compression test and form transfer experiments.

[5] = Slurry experiments of Form H in water/DMSO (form map)
Protocol: The effect of temperature (22° C.-70° C.) and water compositions in DMSO (50%-88%) on the stability of Form A and Form H of Compound 1 is mapped out in Table 6 and FIG. 45.

[6] = Form conversion experiments: slurry in water; format: physicochemical; conditions: RT, 5 days
Protocol: (§1) Further form conversion experiments were performed to determine interconversion among solid forms. The solvated forms were isothermally held at 150° C. for 5 min and the resulted solids were consistent with Form A. All aqueous slurries also afforded Form A.

[7] = Form conversion experiments: heating of solvated forms; format: physicochemical
Protocol: as §1

Compound: C[C@@H]1CC[C@@H](Nc2nc(NC(C)(C)C)ncc2C(N)=O)C[C@H]1O [Form A, 2-(tert-butylamino)-4-((1R,3R,4R)-3-hydroxy-4-methylcyclohexylamino)-pyrimidine-5-carboxamide]
- solubility at 24 h ([1]; pH 4.5, aqueous buffer): 289 µg/mL (≈ 899 µM)
- solubility at 24 h [1]: 38 µg/mL (≈ 118 µM)
- water uptake at room temperature ([2]; room temperature): relatively slow water uptake
- water absorbed after storage ([2]; storage at 40° C./75% RH for 7 months): up to 3%
- XRPD diffractogram after adsorption/desorption cycles ([3]; after DVS cycle 0-95% RH): no change
- DVS water uptake ([3]; at 80% RH (Table 5)): 1.0 wt % at
- steep mass change (DVS) ([3]; between 0 and 10% RH, room temperature): 1.3%
- total mass change (DVS) ([3]; between 0 and 95% RH, room temperature): 2.3%
- DVS water uptake ([3]; from 0 to 95% RH (Table 5)): 1.2 wt % water
- solid form after compression (XRPD) [4]: still Form A
- form stability in water/DMSO ([5]; 22° C., 70-88% water in DMSO): remained as Form A
- thermodynamic stability in water/DMSO ([5]; water rich water/DMSO mixture (>70%), 22° C.-70° C.): thermodynamically stable form

Compound: C[C@@H]1CC[C@@H](Nc2nc(NC(C)(C)C)ncc2C(N)=O)C[C@H]1O [Form B, 2-(tert-butylamino)-4-((1R,3R,4R)-3-hydroxy-4-methylcyclohexylamino)-pyrimidine-5-carboxamide]
- XRPD Result (solid form after slurry in water) [6]: Form A
- solid form after heating above the desolvation temperature ([7]; form transfer experiment, heating above the desolvation temperature): Form A

Compound: C[C@@H]1CC[C@@H](Nc2nc(NC(C)(C)C)ncc2C(N)=O)C[C@H]1O [Form D, 2-(tert-butylamino)-4-((1R,3R,4R)-3-hydroxy-4-methylcyclohexylamino)-pyrimidine-5-carboxamide]
- XRPD Result (solid form after heating) ([7]; Heating, isothermal hold at 150° C. for 5 min): Form A

Compound: C[C@@H]1CC[C@@H](Nc2nc(NC(C)(C)C)ncc2C(N)=O)C[C@H]1O [Form H, 2-(tert-butylamino)-4-((1R,3R,4R)-3-hydroxy-4-methylcyclohexylamino)-pyrimidine-5-carboxamide]
- Stable Polymorph Form after slurry of Form H ([5]; 50% water in DMSO, 22° C.): A/H
- Stable Polymorph Form after slurry of Form H ([5]; 60% water in DMSO, 40° C.): A/H
